Source: paper PMC6692352, “DF2726A, a new IL-8 signalling inhibitor, is able to counteract chemotherapy-induced neuropathic pain” (Scientific Reports, 2019)

Experiments:
CYP 2C19 = CYP 2C19 (Homo sapiens, UniProt P33261); assay: CYP inhibition 2C19; type: in vitro ADME
From the text: (§1) Table 1 Physicochemical and in Vitro ADME Properties of DF2726A. | column: DF2726A

[1] = pKa, logD7.4, logP (SiriusT3 titration); type: physicochemical
Method: vehicle were seeded in the upper compartment. The two compartments were separated by 5 µm pre-size polycarbonate filter (polyvinylpyrrolidone-free for PMN chemotaxis). The chamber was […]
Physicochemical characterization […]
and a turbidity-sensing device. […]
water/HBSS to a final concentration of 10 μM. Cell membrane homogenates (48 μg protein) were […]

CYP 3A4 = CYP 3A4 (Homo sapiens, UniProt P08684); assay: CYP inhibition 3A4; type: in vitro ADME
From the text: as §1

p-STAT3 = p-STAT3 western blotting in F11-derived neurons; type: cell-based; conditions: 24 h
Method: (§2) Following neuronal differentiation, neurons were treated for 24 h with DF2726A (1 μM final concentration), oxaliplatin (Sigma-Aldrich; 20 µM final concentration), or the combination of the two molecules.
(§3) Control and treated cells were collected and lysed in ice-cold RIPA buffer (PBS pH 7.4 containing 0.5% sodium deoxycolate, 1% Igepal, 0.1% SDS, 5 mM EDTA, 1% protease and phosphatase inhibitor cocktails; Sigma-Aldrich) as described in[22],[33]. Protein lysates (30 μg) were separated on 8–12% SDS-polyacrilamide gel and electroblotted onto polyvinyldifluoride membrane (PVDF; Sigma-Aldrich). Nonspecific binding sites were blocked by 5% non-fat dry milk (Bio-Rad Laboratories, Hercules, CA, USA) in Tris buffered saline (TBS: 20 mM Tris- HCl, pH 7.4, containing 150 mM NaCl) for 30 min at RT. […] The relative densities of immunoreactive bands were determined and normalized HRP-conjugated β-actin, using ImageJ software. […]

PI3K and p-Akt = PI3K and p-Akt western blotting in F11-derived neurons; type: cell-based; conditions: DF2726A 1 µM + oxaliplatin 20 µM, 24 h
Method: as §2, §3

acetylated α-tubulin = assay: Acetylated α-tubulin immunofluorescence of nerve fibres in paw sections of oxaliplatin rats; type: in vivo, male Wistar rats; conditions: 30 mg/kg os, rat paw sections
Method: Animals were sacrificed and a biopsy (3 mm) was taken from pad of the right hind paw. Biopsies were immediately placed in Zamboni’s fixative, where they were left at 4 °C. Tissues were then transferred to 20% sucrose for at least 24 h and used for immunohistochemistry analysis. Specimens were frozen in Optimal Cutting Temperature compound (OCT, Sakura Finetek Inc, CA, USA) and sliced into 20 μm thick serial coronal sections by cryostat AMES LAB-TEK (Westmont, Illinois, USA).
In brief, sections were blocked with phosphate buffer saline (PBS) containing 10% (Bovine Serum Albumin) and 0.3% Tween-20, for 1 h at RT and incubated, overnight at 4 °C, with the primary antibodies: IL-8 (mouse, 1:25, R&D Systems Inc. Minneapolis, MN, USA), PGP9.5 (rabbit, 1:1000, AbD Serotec, NC, USA), acetylated alpha tubulin (mouse, 1:250, Abcam Cambridge, MA, USA) and collagen IV (goat, 1:25, Southern Biotech, Birmingham, AL, USA). Sections were then rinsed in PBS several times before incubation for 2 h at RT with secondary antibodies, donkey AlexaFluor 488 anti-rabbit or donkey AlexaFluor 633 (1:2000), goat anti-mouse conjugated with Alexafluor 488 (1:2000; Life Technologies, Camarillo, CA, USA). […]

p-JAK2 = p-JAK2 western blotting in F11-derived neurons; type: cell-based; conditions: 24 h
COX2 = COX2 protein western blotting in F11-derived neurons; type: cell-based; conditions: DF2726A 1 µM + oxaliplatin 20 µM, 24 h
Method: as §2, §3

Metabolic stability, rat = type: in vitro ADME; conditions: Test conc: 2.5 µM
From the text: as §1

[2] = DF2726A 1 µM + oxaliplatin 20 µM

Sequence of CYP 2C19 (P33261 whole entry): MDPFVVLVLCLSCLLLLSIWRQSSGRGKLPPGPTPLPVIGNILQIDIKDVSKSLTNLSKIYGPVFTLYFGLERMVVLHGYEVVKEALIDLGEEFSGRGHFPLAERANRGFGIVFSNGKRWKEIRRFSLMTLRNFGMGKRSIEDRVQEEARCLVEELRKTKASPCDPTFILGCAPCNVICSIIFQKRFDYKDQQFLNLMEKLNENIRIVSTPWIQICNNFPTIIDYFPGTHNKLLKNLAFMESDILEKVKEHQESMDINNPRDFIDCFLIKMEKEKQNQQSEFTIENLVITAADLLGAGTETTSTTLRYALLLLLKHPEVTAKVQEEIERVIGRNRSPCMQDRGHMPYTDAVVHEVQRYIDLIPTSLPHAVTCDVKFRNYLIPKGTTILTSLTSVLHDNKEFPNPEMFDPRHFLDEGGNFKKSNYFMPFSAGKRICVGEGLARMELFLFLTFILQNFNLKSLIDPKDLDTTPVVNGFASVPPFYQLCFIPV
Sequence of CYP 3A4 (P08684 whole entry): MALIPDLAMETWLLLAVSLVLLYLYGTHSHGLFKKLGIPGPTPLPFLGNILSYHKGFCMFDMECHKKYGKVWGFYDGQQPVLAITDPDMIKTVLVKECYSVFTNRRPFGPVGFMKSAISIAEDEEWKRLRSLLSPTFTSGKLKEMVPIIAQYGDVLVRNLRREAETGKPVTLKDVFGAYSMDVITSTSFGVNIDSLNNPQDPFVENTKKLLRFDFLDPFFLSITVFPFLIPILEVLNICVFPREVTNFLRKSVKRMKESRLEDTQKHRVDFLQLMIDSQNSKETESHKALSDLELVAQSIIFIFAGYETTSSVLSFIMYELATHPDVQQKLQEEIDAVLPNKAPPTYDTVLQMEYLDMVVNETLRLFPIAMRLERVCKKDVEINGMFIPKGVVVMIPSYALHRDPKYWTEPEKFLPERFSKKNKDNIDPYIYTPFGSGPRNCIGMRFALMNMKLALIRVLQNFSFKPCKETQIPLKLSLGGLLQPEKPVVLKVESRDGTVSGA

Question: What does the source list for `CC(C)(C(=O)O)c1ccc(Nc2nc(C(F)(F)F)cs2)cc1` [DF2726A]?
Answer: IC50 (CYP 2C19): > 30 µM; logP [1]: 4.3; pKa ([1]; 0.15 M KCl, 25 ± 1°C): 4.14; logD7.4 ([1]; pH 7.4): 0.75; IC50 (CYP 3A4): > 30 µM; p-STAT3 levels, oxaliplatin-treated neurons (p-STAT3; [2]): counteracted this effect; p-STAT3 levels, paclitaxel-treated neurons (p-STAT3; DF2726A + paclitaxel 10 nM): counteracted this effect; PI3K and p-Akt protein levels, oxaliplatin-treated neurons (PI3K and p-Akt): comparable to those of control cells; Acetylated α-tubulin levels in nerve fibres of oxaliplatin rats (acetylated α-tubulin): completely restored control conditions; p-JAK2, oxaliplatin-treated neurons (p-JAK2; [2]): restored control conditions; p-JAK2, paclitaxel-treated neurons (p-JAK2; DF2726A + paclitaxel 10 nM): restored control conditions; COX2 expression levels, oxaliplatin-treated neurons (COX2): comparable to the control; Metabolic stability rat (Metabolic stability, rat): 15.3 µL/min/10^6 cells
